Where no end group is shown, it is not given here.
Assays:
[1] = test system: Candida albicans ATCC 10231; experiment: Protective activity against Candida albicans infection in 5-FU immunosuppressed mice; format: in vivo; settings: for Survivors Day 8 / Survivors Day 15: ddY mice
Procedure: In a series of examples, the compounds of formula I were tested for protective activity against opportunistic infections in immunosuppressed mice. Female ddY mice (6 weeks old) weighing about 26 g were pretreated daily for ten days with 5-fluorouracil (5-FU) (25 mg/kg/day, i.p.) and with thymosin α1 or with compounds of formula I (i.p.) at varying dosages. The mice were then infected with Candida albicans ATCC 10231 (1×10^5 cells or more) at 24 hour after the last treatment. One control group was administered 5-FU and saline solution and a second control group received neither 5-FU nor compound of formula I prior to infection with Candida albicans. The number of animals surviving eight days after infection with Candida albicans and 15 days after infection with Candida albicans is presented in the table below.
(§1) Normal mice (female ddY mice, 6 weeks old) were highly tolerant to infection with Candida albicans ATCC 10231 at relatively low dose (1-2×10^5 cells, iv.). However, when pretreated daily for ten times with 5-FU (25 mg/kg/day, ip.), the mice were susceptible to infection as shown in Table 6. […] Compound A was also shown to be active against infection with Pseudomonas aeruginosa 5E81-1 and Listeria monocytogenes EGD in the immunosuppressed mice (see Tables 7 and 8).

[2] = test system: delayed-type hypersensitivity (DTH); experiment: Restoration of delayed-type hypersensitivity (DTH) decreased by 5-FU in BDF1 mice; format: in vivo; settings: for DTH response %: % of control
Procedure: A poor prognosis is often observed in cancer patients with impaired immune response. Impaired immune response can be caused by the cancer itself, by chemotherapeutic agents, or by radiotherapy. Thus, therapeutic agents which restore impaired immune response in cancer patients are expected to play an important role in combination therapy. The restoration activity of the compounds of the invention on impaired cell-mediated immunity was determined by measuring the enhancement of delayed-type hypersensitivity (DTH), which was decreased to a great extent in mice treated with 5-fluorouracil (5-FU).
Female BDF1 mice (20-22 g, 11-12 weeks old) received (i.p. or p.o.) the compound to be tested on consecutive days one day before, concurrently with and 1 and 2 days after the 5-FU treatment. For DTH measurement, 10^8 chicken red blood cells (CRBC) were injected i.p. (or s.c. into the left hind footpad) and challenged s.c. into the right hind footpad at 3 and 7 days after the 5-FU treatment, respectively. Restoration activity was calculated by the following formula from the DTH response observed in the control group, 5-FU treated group treatment and the Test group treated both with 5-FU and the compound of the invention. Restoration activity was calculated by the formula: [formula]

[3] = Restoration of thymus weight decreased by 5-FU injection; format: in vivo, mice; settings: for Av. thymus weight mg: 8 days after 5-FU, control 39.4, 5-FU alone 23.4; for Av. thymus weight %: % of control; for Restoration Activity(%): thymus weight
Procedure: It is known that anticancer drugs suppress immunological functions by affecting immunocytes. The thymus gland, which is essential for differentiation, maturation and supply to T-cells responsible for immunological reactions, decreases markedly in weight after injection of 5-FU. […] FIfty μg/kg of Compound A administered orally was as effective as 5 μg/kg of thymosin α1 injected intraperitoneally, when the thymus weight was measured immediately after the DTH measurement at 8 days after the 5-FU injection (see Table 5).
*Seven mice per group received the test compound one day before,
concurrently with, and 1 and 2 days after 5FU injection i.p. (100 mg/kg).
The mice were injected CRBC for The DTH assay at 3 and 7 days after the
The thymus weight was measured at 8 days after the 5FU injection.

[4] = test system: Pseudomonas aeruginosa 5E81-1; experiment: Protection against Pseudomonas aeruginosa infection in 5-FU immunosuppressed mice; format: in vivo; settings: Table 7, i.p., 5-FU immunosuppressed mice, control 0/30
Procedure: as §1

P388 leukemia = experiment: Protective activity against P388 leukemia growth in 5-FU immunosuppressed mice; format: in vivo; settings: for Mean Survival days (days ± S.D.): CDF1 mice, 5-FU +, P388 +, 5-FU + saline 4.1
Procedure: The treatment with cytostatic agents often decreases immunocompetence and consequently increases incidence of metastasis of tumor in cancer patients. […] In the experiment shown in Table 10, male CDF1 mice (6 week old) were treated daily for 8 times with or without 5-FU (28 mg/kg/day ip.) and then transplanted subcutaneously with P388 leukemic cells (3×10^5) into footpad 24 hours later. When pretreated with 5-FU, mice died very quickly at 4 days, while normal mice survived about 23 days after the transplant. […] Thymosin α1 and compound A may improve the immunodefense system against metastatic tumor growth in cancer patients who are receiving immunosuppressive chemotherapy. In combination with thymosin α1 or compound A, more extensive cancer chemotherapy for a longer duration may be possible.
^(1) CDF1 mice were pretreated daily for 8 times from Day 8 to
with 5FU (28 mg/kg/day, ip.).
^(2) Thymosin α1 or Compound A were administered daily for
14 times from Day 8 to 5 by ip. route.
^(3) P388 leukemic cells (3 × 10^5) were inoculated into
^(4) Survival days after the inoculation of the leukemic cells.

[5] = Example 8, 40.0 μg/kg i.p. daily for ten days with 5-FU
[6] = Example 10, 0.4 μg/kg i.p. daily for ten days with 5-FU
[7] = Example 10, 4.0 μg/kg i.p. daily for ten days with 5-FU
[8] = Example 10, 40.0 μg/kg i.p. daily for ten days with 5-FU
[9] = Example 11, 4.0 μg/kg i.p. daily for ten days with 5-FU
[10] = Example 11, 40.0 μg/kg i.p. daily for ten days with 5-FU
[11] = Example 11, 400.0 μg/kg i.p. daily for ten days with 5-FU
[12] = Table 2, 5-FU plus 0.5 μg/kg/day, i.p.
[13] = Table 2, 5-FU plus 5.0 μg/kg/day, i.p.
[14] = Table 3, first experiment, 5-FU plus 5.0 μg/kg/day, i.p.
[15] = Table 4, 5-FU plus 5.0 μg/kg/day i.p.

For “thymosin α1 (SDAAVDTSSEITTKDLKEKKEVVEEAEN; ends and bridges not checked; UniProt P01252 2-29, looked up) [peptide isolated from bovine thymus, stimulates maturation, differentiation and function of T cells; U.S. Pat. No. 4,079,127, reference compound]”, the “Survivors Day 8” value [1, 5] was 5/7, the “Survivors Day 15” value [1, 5] was 5/7 and the “Survivors Day 8” value ([1]; Example 9, 40.0 μg/kg i.p. daily for ten days with 5-FU) was 4/7. For the same substance, the “Survivors Day 8” value [1, 6] was 3/10, the “Survivors Day 15” value [1, 6] was 3/10 and the “Survivors Day 8” value [1, 7] was 6/10. The “Survivors Day 15” value [1, 7] was 5/10, the “Survivors Day 8” value [1, 8] was 9/10 and the “Survivors Day 15” value [1, 8] was 8/10. The “Survivors Day 8” value [1, 9] was 3/10, the “Survivors Day 15” value [1, 9] was 3/10 and the “Survivors Day 8” value [1, 10] was 6/10. The “Survivors Day 15” value [1, 10] was 5/10, the “Survivors Day 8” value [1, 11] was 8/10 and the “Survivors Day 15” value [1, 11] was 8/10. For the same substance, the “Survivors at Day 8 after infection” value ([1]; Table 6, 40 μg/kg/day, i.p., ten times with 5-FU, control 1/7) was 4/7, the “Restoration Activity(%)” value [2, 12] was 1.3% and the DTH response % [2, 12] was 56.0%. For the same substance, the “DTH response av. ± S.E. (0.1 mm)” value ([2]; Table 2, 5-FU plus 0.5 μg/kg/day, i.p., control 10.3, 5-FU alone 5.7) was 5.8 ± 1.1 0.1 mm, the “Restoration Activity(%)” value [2, 13] was 50.3% and the DTH response % [2, 13] was 77.8%. The “DTH response av. ± S.E. (0.1 mm)” value ([2]; Table 2, 5-FU plus 5.0 μg/kg/day, i.p., control 10.3, 5-FU alone 5.7) was 8.0 ± 1.2 0.1 mm, the “DTH response av. ± S.E. (0.1 mm)” value ([2]; Table 3, first experiment (control 8.5, 5-FU alone 4.8), 5-FU plus 5.0 μg/kg/day, i.p.) was 7.3 ± 0.8 0.1 mm and the “Restoration Activity(%)” value [2, 14] was 68.7%. For the same substance, the DTH response % [2, 14] was 86.3%, the “DTH response av. ± S.E. (0.1 mm)” value ([2]; Table 4 (control 7.7, 5-FU alone 5.6), 5-FU plus 0.5 μg/kg/day i.p.) was 5.4 ± 1.2 0.1 mm and the “DTH response av. ± S.E. (0.1 mm)” value ([2]; Table 4 (control 7.7, 5-FU alone 5.6), 5-FU plus 5.0 μg/kg/day i.p.) was 7.3 ± 0.8 0.1 mm. For the same substance, the DTH response % ([2]; Table 4, 5-FU plus 0.5 μg/kg/day i.p.) was 70.1%, the “Restoration Activity(%)” value [2, 15] was 81.0% and the DTH response % [2, 15] was 94.8%. For the same substance, the “Av. thymus weight mg” value ([3]; 5-FU (100 mg/kg i.p.) plus 0.5 μg/kg/day i.p.) was 24.9 ± 1.7 mg, the “Av. thymus weight mg” value ([3]; 5-FU (100 mg/kg i.p.) plus 5.0 μg/kg/day i.p.) was 26.7 ± 1.1 mg and the “Av. thymus weight %” value ([3]; 5-FU plus 0.5 μg/kg/day i.p.) was 63.2%. For the same substance, the “Av. thymus weight %” value ([3]; 5-FU plus 5.0 μg/kg/day i.p.) was 67.8%, the “Restoration Activity(%)” value ([3]; 5-FU plus 0.5 μg/kg/day i.p.) was 9.4% and the “Restoration Activity(%)” value ([3]; 5-FU plus 5.0 μg/kg/day i.p.) was 20.6%. The “Survivors at Day 15 after infection” value ([4]; 0.4 μg/kg/day) was 7/20, the “Survivors at Day 15 after infection” value ([4]; 4 μg/kg/day) was 12/30 and the “Survivors at Day 15 after infection” value ([4]; 40 μg/kg/day) was 16/30. The “Mean Survival days (days ± S.D.)” value (P388 leukemia; 4 μg/kg/day ip. 14 times) was 17.6 ± 8.2 days, the “Mean Survival days (days ± S.D.)” value (P388 leukemia; 40 μg/kg/day ip. 14 times) was 20.7 ± 2.8 days and the “survival days (in words)” value (P388 leukemia; daily treatment in addition to 5-FU, 8 times before and 6 times after the transplant) was “increased the survival days to the level similar to that obtained in normal mice”.
